Here are results for 7 compounds from patent US20100022491A1, “4-HYDROXY-2-OXO-2,3-DIHYDRO-1,3-BENZOTHIAZOL-7YL COMPOUNDS FOR MODULATION OF B2-ADRENORECEPTOR ACTIVITY” (ASTRAZENECA AB, priority 2006, published 2010).

Counter-ions that a name gives are not always drawn.

Assay [1] concerns the target T1, recombinant human Dopamine Subtype D2s receptors (Homo sapiens, UniProt P14416).
T1 construct: purchased Perkin Elmer
The assay can be described thus: Dopamine D2 selectivity binding assay ([3H]-spiperone). The following applies: inhibition of [3H]-spiperone (0.16 nM) binding; read-out: D2 bind pIC50 (converted). The essentials: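 Displacement of [3H]-spiperone (0.16 nM final) from human D2s receptor membranes in pH 7.4 HEPES buffer over 2 h at room temperature, then filtration and scintillation counting. Specific binding taken as vehicle minus 10 μM haloperidol wells. Potency given as pIC50 from a four-parameter logistic curve.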

The target of assay [2] is T2, recombinant human α1D receptor (Homo sapiens, UniProt P25100).
T2 construct: expressed in transfected cells; host or cells: HEK293
T2 sequence (P25100 1-572): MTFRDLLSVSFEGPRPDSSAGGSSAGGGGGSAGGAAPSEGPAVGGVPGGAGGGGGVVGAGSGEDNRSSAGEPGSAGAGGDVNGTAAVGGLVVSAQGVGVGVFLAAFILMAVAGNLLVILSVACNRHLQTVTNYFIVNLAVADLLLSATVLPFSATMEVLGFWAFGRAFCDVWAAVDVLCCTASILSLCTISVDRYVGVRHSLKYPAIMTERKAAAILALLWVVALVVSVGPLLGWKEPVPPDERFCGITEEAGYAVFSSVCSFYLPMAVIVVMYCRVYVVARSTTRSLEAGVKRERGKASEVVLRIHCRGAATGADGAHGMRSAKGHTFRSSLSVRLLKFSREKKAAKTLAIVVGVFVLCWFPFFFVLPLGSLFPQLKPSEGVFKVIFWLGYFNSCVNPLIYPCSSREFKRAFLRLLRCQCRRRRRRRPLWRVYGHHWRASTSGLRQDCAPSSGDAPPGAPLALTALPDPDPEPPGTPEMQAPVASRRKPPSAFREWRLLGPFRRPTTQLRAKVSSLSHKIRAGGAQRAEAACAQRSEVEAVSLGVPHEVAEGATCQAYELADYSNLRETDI
The assay can be described thus: Adrenergic α1D selectivity binding assay ([3H]-prazosin). To be noted: inhibition of [3H]-prazosin (0.3 nM) binding, HEK293 membranes; read-out: α1 bind pIC50 (converted). The method in brief: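 Displacement of [3H]-prazosin (0.3 nM) from recombinant human α1D receptor in HEK293-cell membranes, 2 h at room temperature, pH 7.4 HEPES/EDTA/gelatin buffer. Filtration and scintillation counting, non-specific binding set with 10 μM BMY7378; four-parameter logistic fit gives pIC50.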

Assay [3] addresses T3, recombinant human adrenergic beta 1 receptors (Homo sapiens, UniProt P08588).
T3 construct: purchased Euroscreen
The assay can be described thus: Adrenergic β1 selectivity binding assay ([125I]-Iodocyanopindolol). To be noted: inhibition of [125I]-Iodocyanopindolol (0.036 nM) binding; read-out: β1 bind p IC50 (converted). The essentials: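 Displacement of [^125I]-Iodocyanopindolol (0.036 nM final) from human β1 receptor membranes, 2 hours at room temperature, pH 7.4 HEPES/EDTA/NaCl buffer. After filtration, scintillation counting; NSB set with 10 μM propranolol and subtracted. Four-parameter logistic fitting gave pIC50.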

T1 sequence (P14416 1-414 isoform P14416-2): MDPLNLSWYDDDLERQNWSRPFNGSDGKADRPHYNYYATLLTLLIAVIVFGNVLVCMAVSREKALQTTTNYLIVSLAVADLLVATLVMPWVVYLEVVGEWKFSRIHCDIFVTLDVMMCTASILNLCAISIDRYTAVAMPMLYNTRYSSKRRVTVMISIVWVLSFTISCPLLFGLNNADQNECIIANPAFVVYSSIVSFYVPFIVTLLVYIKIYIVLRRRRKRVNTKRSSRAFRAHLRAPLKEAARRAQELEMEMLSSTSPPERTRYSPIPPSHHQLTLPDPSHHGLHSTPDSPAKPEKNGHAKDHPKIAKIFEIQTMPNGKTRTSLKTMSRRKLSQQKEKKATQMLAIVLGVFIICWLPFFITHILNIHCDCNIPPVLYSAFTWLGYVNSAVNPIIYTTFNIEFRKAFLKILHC
T3 sequence (P08588 whole entry): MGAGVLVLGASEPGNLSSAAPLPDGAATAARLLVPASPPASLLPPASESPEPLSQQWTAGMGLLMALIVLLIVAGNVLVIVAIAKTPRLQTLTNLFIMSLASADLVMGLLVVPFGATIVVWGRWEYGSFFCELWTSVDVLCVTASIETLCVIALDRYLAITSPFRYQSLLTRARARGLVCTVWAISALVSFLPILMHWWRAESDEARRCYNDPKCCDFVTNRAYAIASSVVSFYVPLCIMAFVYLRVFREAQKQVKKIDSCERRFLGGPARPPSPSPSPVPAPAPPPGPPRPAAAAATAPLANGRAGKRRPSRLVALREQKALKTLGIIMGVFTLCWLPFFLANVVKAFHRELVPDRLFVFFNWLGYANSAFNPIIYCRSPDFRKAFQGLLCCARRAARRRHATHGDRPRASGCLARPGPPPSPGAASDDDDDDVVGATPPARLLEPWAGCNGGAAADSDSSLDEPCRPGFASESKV

As to `O=C(CCNCCc1cccc(F)c1)N(CCNCCc1ccc(O)c2[nH]c(=O)sc12)C1CCCCC1` [Example 96, N-Cyclohexyl-N^3-[2-(3-fluorophenyl)ethyl]-N-(2-{[2-(4-hydroxy-2-oxo-2,3-dihydro-1,3-benzothiazol-7-yl)ethyl]amino}ethyl)-β-alaninamide dihydrobromide salt], the IC50 in assay [1] is 398 nM; in assay [2] it was 200 nM; in assay [3], 6310 nM.
The matching figures for `O=C(CCNCCc1ccccc1)N(CCNCCc1ccc(O)c2[nH]c(=O)sc12)C1CCCCCC1` [Example 98, N-Cycloheptyl-N-(2-{[2-(4-hydroxy-2-oxo-2,3-dihydro-1,3-benzothiazol-7-yl)ethyl]amino}ethyl)-N^3-(2-phenylethyl)-β-alaninamide dihydrobromide salt]: 158 nM, 63.1 nM and 2000 nM.
The matching figures for `O=C(NCc1ccccc1)c1ccc(CCNCCC(=O)N(CCNCCc2ccc(O)c3[nH]c(=O)sc23)C2CCCCCC2)cc1` [Example 100, N-Benzyl-4-[2-({3-[cycloheptyl(2-{[2-(4-hydroxy-2-oxo-2,3-dihydro-1,3-benzothiazol-7-yl)ethyl]amino}ethyl)amino]-3-oxopropyl}amino)ethyl]benzamide bis-trifluoroacetic acid salt]: 31.6 nM, 251 nM and 1260 nM.
The matching figures for `CCCC[C@@H](C)N(CCNCCc1ccc(O)c2[nH]c(=O)sc12)C(=O)CCNCCc1ccccc1` [Example 101, N-(2-{[2-(4-Hydroxy-2-oxo-2,3-dihydro-1,3-benzothiazol-7-yl)ethyl]amino}ethyl)-N-[(1R)-1-methylpentyl]-N^3-(2-phenylethyl)-β-alaninamide bis-trifluoroacetic acid salt]: 31.6 nM, 50.1 nM and 3980 nM.
As for `CCCC[C@H](C)N(CCNCCc1ccc(O)c2[nH]c(=O)sc12)C(=O)CCNCCc1ccccc1` [Example 102, N-(2-{[2-(4-Hydroxy-2-oxo-2,3-dihydro-1,3-benzothiazol-7-yl)ethyl]amino}ethyl)-N-[(1S)-1-methylpentyl]-N^3-(2-phenylethyl)-β-alaninamide bis-trifluoroacetic acid salt], the results for the IC50 in assay [1], in assay [2] and in assay [3] were 79.4 nM, 100 nM and 1260 nM, respectively.
The matching figures for `CC(CN(C(=O)CCNCCc1cccc(F)c1)C1CCCCCC1)NCCc1ccc(O)c2[nH]c(=O)sc12` (stereo not drawn) [Example 104, N-Cycloheptyl-N^3-[2-(3-fluorophenyl)ethyl]-N-(2-{[2-(4-hydroxy-2-oxo-2,3-dihydro-1,3-benzothiazol-7-yl)ethyl]amino}propyl)-β-alaninamide bis-trifluoroacetic acid salt]: 63.1 nM, 100 nM and 794 nM.
Turning to `CC(CN(C(=O)CCNCCc1ccccc1)C1CCCCC1)NCCc1ccc(O)c2[nH]c(=O)sc12` (stereo not drawn) [Example 105, N-Cyclohexyl-N-(2-{[2-(4-hydroxy-2-oxo-2,3-dihydro-1,3-benzothiazol-7-yl)ethyl]amino}propyl)-N^3-(2-phenylethyl)-β-alaninamide bis-trifluoroacetic acid salt], the IC50 in assay [1] was 316 nM; in assay [2] it was 79.4 nM; in assay [3] it was 1580 nM.
